Source: patent publication US7241570B2, “Method of screening for agents that regulate the shedding of membrane bound proteins and methods of use” (University of Utah Research Foundation, priority 2001, dated 2007)

Columns and labels:
[1] = test system: TNFα release from liver and spleen cell suspensions; experiment: TNFα ectodomain shedding from liver and spleen cell suspensions (ELISA); type: cell-based, mouse; conditions: LPS 5 μg/mL, PMA 50 ng/mL, liver and spleen cell suspensions of newborn mice
Protocol: TACE was originally identified as the enzyme that proteolytically releases TNFα from the cell surface. Black, R. et al. Nature 385, 729-733 (1997); Moss, M. L. et al. Nature 385, 733-736 (1997). Whether deleting DGKδ affected ectodomain shedding of TNFα from liver and spleen cell suspensions was tested—where hematopoietic activity is highest in newborn mice. Tamura, K. et al. Cell 102, 221-231 (2000). To induce release on TNFα, the cell suspensions were stimulated with lipopolysaccharide (LPS, […]), PMA (50 ng/mL), or a combination of LPS (5 μg/mL) and PMA (50 ng/mL). As measured by ELISA, both agents induced release of TNFα into the medium, with LPS inducing a five-fold increase and PMA causing a three-fold increase. Combining LPS and PMA increased TNFα shedding twenty-fold. […] Reddy, P. et al. J. Biol. Chem. 275, 14608-14614 (2000)

[2] = test system: β-APP shedding from embryonic fibroblasts; experiment: Release of endogenous β-APP from embryonic fibroblasts; type: cell-based, mouse
Text: TACE is the only enzyme known to shed soluble TGFα, a process enhanced by stimulation with serum or PMA. Peschon, J. J. et al. Science 282, 1281-1284 (1998). It is not known whether or not the cytoplasmic tail of TACE is required to activate TGFα shedding. To test if DGKδ affected release of TGFα, the amounts of soluble TGFα in the culture media of dgkd^−/− and wild-type embryonic fibroblasts transfected with pro-TGFα were compared. […] Supporting a role for DGKδ in stimulated TGFα shedding, PMA-induced shedding of TGFα by dgkd^−/− cells was approximately 25% that of stimulated wild-type cells (FIG. 4A, left). […] Since TACE is the only enzyme known to shed TGFα, DGKδ was likely affecting TACE. TACE is also known to cleave β-APP, so the release of endogenous β-APP from embryonic fibroblasts was examined next. Reddy, P. et al. J. Biol. Chem. 275, 14608-14614 (2000).

[3] = test system: DGKδ and TACE; experiment: Co-immunoprecipitation of DGKδ and myc-TACE overexpressed in COS7 cells; type: cell-based; conditions: COS7 cells after starvation (0.5% serum for 2 hrs)
Text: According to previous experiments, DGKδ appears to regulate the activity of TACE toward some of its substrates. Based on the data, however, it is not clear whether DGKδ directly activates TACE or indirectly affects its activity through another protein. It was hypothesized that in order to regulate TACE, DGKδ must associate with it or a complex of proteins that contains TACE. To address whether this occurs in vivo, the enzymes were overexpressed in COS7 cells and then co-immunoprecipitation analysis was performed. Myc-tagged TACE in cell lysates was immunoprecipitated with an anti-myc monoclonal antibody, and then immune complexes were analyzed for co-immunoprecipitation of DGKδ by immunoblotting. When cells were grown in normal medium (10% FBS) DGKδ clearly co-immunoprecipitated with TACE (FIG. 6 left). Controls using normal IgG for immunoprecipitation instead of anti-myc antibody, or where anti-myc was used, but myc-TACE was not included in the transfection, established the specificity of DGKδ-TACE co-immunoprecipitation. Two agents previously shown to induce TACE activity are serum factors and PMA. […] Thus, stimuli that increase TACE activity enhance an interaction between DGKδ and TACE, providing further evidence that DGKδ positively regulates TACE activity.

[4] = test system: phosphorylated ERK1 and 2; experiment: ERK phosphorylation after exogenous EGF in primary embryonic fibroblasts (immunoblot densitometry); type: cell-based, mouse
Text: Whether signaling downstream of EGFR was affected in DGKδ mutant mice was also examined. Since the MAPK pathway is a major route of EGFR signaling, ERK phosphorylation was examined in cell lines developed from knockout mice. Prenzel, N., et al. Endocrine-Related Cancer 8, 11-31 (2001). In primary embryonic fibroblasts from wild-type mice, exogenous EGF caused a 2.2 fold increase in phosphorylated ERK1 and 2 as judged by densitometry of the immunoblot bands (FIG. 3). […] Activation of EGFR signaling is known to mediate stress fiber formation induced by serum factors. Prenzel, N., et al. Endocrine-Related Cancer 8, 11-31 (2001). […] Thus, whether DGKδ affects the activity of TACE was examined next.

[5] = test system: phosphatidylinositol 5-kinases; conditions: cited from earlier work

Compound: lipopolysaccharide [LPS]
- increase in release of TNFα into the medium [1]: five-fold

Compound: CCCCCCCCCCCCCC(=O)O[C@@H]1[C@@H](C)[C@@]2(O)[C@@H](C=C(CO)C[C@]3(O)C(=O)C(C)=C[C@@H]23)[C@@H]2C(C)(C)[C@]12OC(C)=O [PMA]
- increase in release of TNFα into the medium [1]: three-fold
- increase in β-APP shedding ([2]; dgkd+/+ embryonic fibroblasts): 6-8 fold
- increase in β-APP shedding ([2]; dgkd−/− embryonic fibroblasts): moderate increase
- co-immunoprecipitation of DGKδ and TACE [3]: significantly increased

Compound: EGF: exogenous EGF, EGF receptor ligand
- increase in phosphorylated ERK1 and 2 ([4]; primary embryonic fibroblasts from DGKδ null mice): 2.1 fold
- increase in phosphorylated ERK1 and 2 ([4]; primary embryonic fibroblasts from wild-type mice, densitometry of immunoblot bands): 2.2 fold

Compound: phosphatidic acid [PA]
- activity of phosphatidylinositol 5-kinases in the presence of PA [5]: 8-14 fold
